Reference: US7354991B2, “Peptides for the diagnosis of schizophrenia” (Yeda Research and Development Co. Ltd, priority 2001, dated 2008)

Assays:
[1] = test system: autoantibodies in plasma samples from schizophrenic patients; assay: Enzyme immunoassay: binding of biotin-labeled peptide on streptavidine coated tubes to plasma of schizophrenic patients; parameters: species or system human; conditions: 39 schizophrenic patients; FIG. 3
Method: (§1) • 1. Patients and control persons—Thirty-nine schizophrenic patients participated in this study. The following parameters were recorded: gender, age, duration of schizophrenia, number of hospitalizations, years of education and the psychiatric status (PANSS). Fifty plasma samples were obtained from a local blood bank. • 2. Plasma—Venous blood was drawn with heparin as […] from patients and control subjects. Plasma was obtained after centrifugation (4000 g; 15 mins. 4° C.). • 3. Peptide synthesis and biotin labeling—The peptides were synthesized on an Abimed 522 at a 10 micromol scale by Eurosequence b.v., (Nijenborgh 4: 9747 AG Groningen; The Netherlands) and labeled at the amino terminal with biotin containing a six carbon spacer. Peptide purity was routinely assessed by RP-HPLC and, when considered necessary, by laser desorption mass spectroscopy. The peptides were routinely dissolved in 1 ml water/DMF/DMSO (1:1:1; v/v/v). • 4. […] The absorbence was read at 450 nm spectrophotometrically. […]
(§2) Therefore, an experiment was carried out with the biotin-LVVGLCK as follows: the peptide was biotin-labeled and coated onto streptavidine coated tubes as explained above. Plasma samples of 39 schizophrenic patients and 50 control non schizophrenic individuals were tested with the coated peptide and the level of binding was determined by the enzyme immunoassay described above.

[2] = test system: plasma samples from non schizophrenic individuals; assay: Enzyme immunoassay: binding of biotin-labeled peptide on streptavidine coated tubes to control plasma; parameters: species or system human; conditions: 50 control individuals; FIG. 3
Method: as §1, §2

LVVGLCK
level of binding, mean value and standard deviation, plasma of schizophrenic patients [1]: 1.47±0.65 O.D. | level of binding, mean value and standard deviation, plasma of non schizophrenic individuals [2]: 0.46±0.21 O.D.
